The source of these data is patent publication US7973047B2, “Beta-Secretase modulators and methods of use” (Amgen Inc., priority 2010, dated 2011).

This assay concerns Aβ40 in conditioned medium of cells stably expressing Amyloid Precursor Protein (APP). In words: BACE cell-based assay: Aβ40 in conditioned medium by sandwich ELISA. Conditions: cell based assay data, Table 4; unit inferred; read-out: Cell Assay. Put shortly: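 APP-stable cells grown 24 h in DMEM/10% FBS, then exposed to compounds for 24 h in a 10-point dose series starting at 100 or 10 μM, 0.1% DMSO final. Medium Aβ40 measured by pAb40/biotinylated 6E10 sandwich ELISA with Europium time-resolved fluorescence; IC50 from percent inhibition.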
Turning to `CC(=O)N[C@@H](Cc1ccc(Cl)c(C(F)(F)F)c1)[C@H](O)CN[C@H]1CC2(CCC2)Oc2ncc(CC(C)(C)C)cc21` [compound 716], the IC50 was 23.3 nM.

Regarding `C=CCC[C@H](NC(C)=O)[C@H](O)CN[C@H]1C[C@]2(C[C@H](C)C2)Oc2ncc(CC(C)(C)C)cc21` [compound 717, N-((1S)-1-((1R)-2-(((1s,3R,4′S)-6′-(2,2-dimethylpropyl)-3-methyl-3′,4′-dihydrospiro[cyclobutane-1,2′-pyrano[2,3-b]pyridin]-4′-yl)amino)-1-hydroxyethyl)-4-penten-1-yl)acetamide], the IC50 came to 52.5 nM.

Take `CC(=O)N[C@@H](Cc1cccc(C(F)(F)F)c1)[C@H](O)CN[C@H]1CC2(CCC2)Oc2ncc(CC(C)(C)C)cc21` [compound 718]: the IC50 came out at 3.98 nM.

`CC(=O)N[C@@H](Cc1cccc(C(F)(F)F)c1)[C@H](O)CN[C@H]1CC2(CCC2)Oc2ncc(CC(C)C)cc21` [compound 719]: the IC50 was determined as 9.35 nM.

On to `CC(=O)N[C@@H](Cc1ccc(Cl)c(F)c1)[C@H](O)CN[C@H]1CC2(CCC2)Oc2ncc(CC(C)(C)C)cc21` [compound 720], for which the IC50 came to 8.57 nM.

For `COc1cc(C[C@H](NC(C)=O)[C@H](O)CN[C@H]2CC3(CCC3)Oc3ncc(CC(C)(C)C)cc32)ccc1Cl` [compound 721], the IC50 was 21.4 nM.

Take `CC(=O)N[C@@H](CC1CC1)[C@H](O)CN[C@H]1CC2(CCC2)Oc2ncc(CC(C)(C)C)cc21` [compound 722, N-((1S,2R)-1-(cyclopropylmethyl)-3-(((4′S)-6′-(2,2-dimethylpropyl)-3′,4′-dihydrospiro[cyclobutane-1,2′-pyrano[2,3-b]pyridin]-4′-yl)amino)-2-hydroxypropyl)acetamide]: the IC50 stood at 46.5 nM.

For the compound `CC(=O)N[C@@H](CC1CC1C)[C@H](O)CN[C@H]1CC2(CCC2)Oc2ncc(CC(C)(C)C)cc21` (stereo partly drawn) [compound 723, N-((1S,2R)-3-(((4′S)-6′-(2,2-dimethylpropyl)-3′,4′-dihydrospiro[cyclobutane-1,2′-pyrano[2,3-b]pyridin]-4′-yl)amino)-2-hydroxy-1-((2-methylcyclopropyl)methyl)propyl)acetamide], the IC50 was 195 nM.

As for `CC(=O)N[C@@H](CC1CC1)[C@H](O)CN[C@H]1CC2(CCC2)Oc2ncc(CC(C)(C)CC(F)F)cc21` [compound 724, N-((1S,2R)-1-(cyclopropylmethyl)-3-(((4′S)-6′-(4,4-difluoro-2,2-dimethylbutyl)-3′,4′-dihydrospiro[cyclobutane-1,2′-pyrano[2,3-b]pyridin]-4′-yl)amino)-2-hydroxypropyl)acetamide], the IC50 came out at 184 nM.

As to `CC(=O)N[C@@H](CC1CC1)[C@H](O)CN[C@H]1C[C@]2(C[C@H](C)C2)Oc2ncc(CC(C)(C)C)cc21` [compound 725, N-((1S,2R)-1-(cyclopropylmethyl)-3-(((1s,3R,4′S)-6′-(2,2-dimethylpropyl)-3-methyl-3′,4′-dihydrospiro[cyclobutane-1,2′-pyrano[2,3-b]pyridin]-4′-yl)amino)-2-hydroxypropyl)acetamide], the IC50 is 68.8 nM.

`CC(=O)N[C@@H](Cc1ccnc(OC(F)F)c1)[C@H](O)CN[C@H]1CC2(CCC2)Oc2ncc(CC(C)(C)C)cc21` [compound 726, N-((1S,2R)-1-((2-((difluoromethyl)oxy)-4-pyridinyl)methyl)-3-(((4′S)-6′-(2,2-dimethylpropyl)-3′,4′-dihydrospiro[cyclobutane-1,2′-pyrano[2,3-b]pyridin]-4′-yl)amino)-2-hydroxypropyl)acetamide]: the IC50 was determined as 9.72 nM.

For `CN(C)CC(=O)N[C@@H](Cc1cccc(C#N)c1)[C@H](O)CN[C@H]1CC2(CCC2)Oc2ccc(Br)cc21` [compound 727], the IC50 was 300 nM.

As to `COC(=O)c1ccc2c(c1)[C@@H](NC[C@@H](O)[C@H](Cc1cccc(C#N)c1)NC(=O)CN(C)C)CC1(CCC1)O2` [compound 728], the IC50 was found to be 43.9 nM.

With `COC(=O)c1ccc2c(c1)[C@@H](NC[C@@H](O)[C@H](Cc1cccc(C#N)c1)NC(C)=O)CC1(CCC1)O2` [compound 729], the IC50 amounted to 1450 nM.

On to `COCC(=O)N[C@@H](Cc1cccc(C#N)c1)[C@H](O)CN[C@H]1CC2(CCC2)Oc2ccc(C(=O)OC)cc21` [compound 730], for which the IC50 came out at 1020 nM.

On to `CCc1ccc2c(c1)[C@@H](NC[C@@H](O)[C@H](COC)NC(C)=O)CC1(CCC1)O2` [compound 731], for which the IC50 was 2520 nM.

For `CCCOC[C@H](NC(C)=O)[C@H](O)CN[C@H]1CC2(CCC2)Oc2ccc(CC)cc21` [compound 732], the IC50 worked out at 3260 nM.

For the compound `CCc1ccc2c(c1)[C@@H](NC[C@@H](O)[C@H](COCc1ccccc1)NC(C)=O)CC1(CCC1)O2` [compound 733], the IC50 is at least 10000 nM.

For `CCc1ccc2c(c1)[C@@H](NC[C@@H](O)[C@H](Cn1cccn1)NC(C)=O)CC1(CCC1)O2` [compound 734], the IC50 worked out at 5370 nM.

For the compound `CC(=O)N[C@@H](Cn1cccn1)[C@H](O)CN[C@H]1CC2(CCC2)Oc2ncc(CC(C)(C)C)cc21` [compound 735], the IC50 is at least 10000 nM.

With `C=CC[C@H](NC(C)=O)[C@@H](O)CN[C@H]1CC2(CCC2)Oc2ncc(CC(C)(C)C)cc21` [compound 737, N-((1S)-1-((1S)-2-(((4′S)-6′-(2,2-dimethylpropyl)-3′,4′-dihydrospiro[cyclobutane-1,2′-pyrano[2,3-b]pyridin]-4′-yl)amino)-1-hydroxyethyl)-3-buten-1-yl)acetamide], the IC50 was at least 10000 nM.

On to `CC(=O)N[C@@H](CCC(F)(F)F)[C@H](O)CN[C@H]1CC2(CCC2)Oc2ncc(CC(C)(C)C)cc21` [compound 738, N-((1S)-1-((1R)-2-(((4′S)-6′-(2,2-dimethylpropyl)-3′,4′-dihydrospiro[cyclobutane-1,2′-pyrano[2,3-b]pyridin]-4′-yl)amino)-1-hydroxyethyl)-4,4,4-trifluorobutyl)acetamide], for which the IC50 was 1420 nM.

Consider `C/C=C/C[C@H](NC(C)=O)[C@H](O)CN[C@H]1CC2(CCC2)Oc2ncc(CC(C)(C)C)cc21` [compound 739, N-((1S,3E)-1-((1R)-2-(((4′S)-6′-(2,2-dimethylpropyl)-3′,4′-dihydrospiro[cyclobutane-1,2′-pyrano[2,3-b]pyridin]-4′-yl)amino)-1-hydroxyethyl)-3-penten-1-yl)acetamide], for which the IC50 was found to be 298 nM.

With `C=C[C@H](NC(C)=O)[C@H](O)CN[C@H]1CC2(CCC2)Oc2ncc(CC(C)(C)C)cc21` [compound 740, N-((1S)-1-((1R)-2-(((4′S)-6′-(2,2-dimethylpropyl)-3′,4′-dihydrospiro[cyclobutane-1,2′-pyrano[2,3-b]pyridin]-4′-yl)amino)-1-hydroxyethyl)-2-propen-1-yl)acetamide], the IC50 turned out to be 3330 nM.

Turning to `C=CC[C@H](NC(C)=O)[C@H](O)CN[C@H]1CC2(CCC2)Oc2ncc(CC(C)(C)F)cc21` [compound 741, N-((1S)-1-((1R)-2-(((4′S)-6′-(2-fluoro-2-methylpropyl)-3′,4′-dihydrospiro[cyclobutane-1,2′-pyrano[2,3-b]pyridin]-4′-yl)amino)-1-hydroxyethyl)-3-buten-1-yl)acetamide], the IC50 came out at 193 nM.

In the case of `CCC#CC[C@H](NC(C)=O)[C@H](O)CN[C@H]1CC2(CCC2)Oc2ncc(CC(C)(C)C)cc21` [compound 742], the IC50 was 286 nM.

Turning to `Cc1nccn1CC(=O)N[C@@H](Cc1ccccc1)[C@H](O)CN[C@H]1CC2(CCC2)Oc2ccc(CC(C)(C)C)cc21` [compound 744, N-((1S,2R)-3-(((4S)-6-(2,2-dimethylpropyl)-3,4-dihydrospiro[chromene-2,1′-cyclobutan]-4-yl)amino)-2-hydroxy-1-(phenylmethyl)propyl)-2-(1H-2-methyl-imidazol-1-yl) acetamide], the IC50 is 5.72 nM.

With `CC(=O)N[C@@H](Cc1cc(F)cc(F)c1)[C@H](O)CN[C@H]1CC2(CCC2)Oc2ncc(Br)cc21` [compound 745], the IC50 is 33.1 nM.

For the compound `CC(=O)N[C@@H](Cc1cc(F)cc(F)c1)[C@H](O)CN[C@H]1CC2(CCC2)Oc2ncc(-n3cccn3)cc21` [compound 746], the IC50 was found to be 215 nM.

Consider `CC(=O)N[C@@H](Cc1cc(F)cc(F)c1)[C@H](O)CN[C@H]1CC2(CCC2)Oc2ncc(-n3ccnc3)cc21` [compound 747], for which the IC50 worked out at 498 nM.

As for `CC(=O)N[C@@H](Cc1cc(F)cc(F)c1)[C@H](O)CN[C@H]1CC2(CCC2)Oc2ncc(-c3nccs3)cc21` [compound 748], the IC50 was 1050 nM.

For the compound `CC(=O)N[C@@H](Cc1ccccc1)[C@H](O)CN[C@H]1CC2(CCC2)Oc2cnc(CC(C)(C)C)cc21` [compound 749], the IC50 is 14 nM.

Take `CC(=O)N[C@@H](Cc1cc(F)cc(Cl)c1)[C@H](O)CN[C@H]1CC2(CCC2)Oc2cnc(CC(C)(C)C)cc21` [compound 750]: the IC50 turned out to be 20.3 nM.

As to `CC(=O)N[C@@H](Cc1cc(F)cc(Cl)c1)[C@H](O)CN[C@H]1CC2(CCC2)Oc2cnc(CC(C)(C)O)cc21` [compound 751], the IC50 was determined as 38.8 nM.

As for `CC(=O)N[C@@H](Cc1cc(F)cc(Cl)c1)[C@H](O)CN[C@H]1CC2(CCC2)Oc2c1cc(CC(C)(C)C)nc2Cl` [compound 752], the IC50 was 42.2 nM.

As to `CC(=O)N[C@@H](Cc1ccccc1)[C@H](O)CN[C@H]1CC2(CCC2)Oc2c1cc(CC(C)(C)C)nc2Cl` [compound 753], the IC50 amounted to 13.8 nM.

`CC(=O)N[C@@H](Cc1ccccc1)[C@H](O)CN[C@H]1CC2(CCC2)Oc2c1cc(CC(C)(C)C)nc2N1CCOCC1` [compound 754]: the IC50 worked out at 52.2 nM.

Regarding `CC(=O)N[C@@H](Cc1ccccc1)[C@H](O)CN[C@H]1CC2(CCC2)Oc2c1cc(CC(C)(C)C)nc2N1CCCC1` [compound 755], the IC50 amounted to 6.5 nM.

For the compound `CC(=O)N[C@@H](Cc1cc(F)cc(N(C)C)c1)[C@H](O)CN[C@H]1CC(C)(C)Oc2c1cc(CC(C)(C)C)nc2N(C)C` [compound 756], the IC50 worked out at 200 nM.

Consider `CC(=O)N[C@@H](Cc1cc(F)cc(Cl)c1)[C@H](O)CN[C@H]1CC(C)(C)Oc2c1cc(CC(C)(C)C)nc2N(C)C` [compound 757], for which the IC50 was 68.9 nM.
